Laboratory results reported in the NIST ThermoML archive (doi:10.1021/je3010535).
“And” between values parts separate entries of the source, which are not always exact repeats. Identical values can stand only once. Numbers after ± are expanded uncertainties.

Assay: Henry's Law constant (molality scale); of the first substance listed, at infinite dilution; xn = mol fraction of the nth substance listed
Conditions: Liquid, Chromatography, x1 = 0

SMILES | Henry's Law constant (274.15 K) | Henry's Law constant (294.65 K) | Henry's Law constant (296.15 K) | Henry's Law constant (310.15 K) | Henry's Law constant (320.15 K) | Henry's Law constant (331.15 K) | Henry's Law constant (298.15 K) | Henry's Law constant (311.15 K) | Henry's Law constant (332.15 K) | Henry's Law constant (273.25 K) | Henry's Law constant (333.15 K) | Henry's Law constant (313.15 K) | Henry's Law constant (326.15 K)
CC(C)(Cl)Cl [2,2-dichloropropane] + O | 423 ± 170 kPa·kg/mol | – | – | – | – | – | – | – | – | – | – | 3280 ± 1300 kPa·kg/mol | 36600 ± 15000 kPa·kg/mol
CCCCOCCO [2-butoxyethan-1-ol] + O | – | – | – | – | – | – | 0.269 ± 0.081 kPa·kg/mol | 0.904 ± 0.27 kPa·kg/mol | 4.27 ± 1.3 kPa·kg/mol | – | – | – | –
Cc1ccc2ccccc2c1 [2-methylnaphthalene] + O | 4.91 ± 1.5 kPa·kg/mol | 31.4 kPa·kg/mol and 16.6 kPa·kg/mol | 35 ± 10 kPa·kg/mol | 84.4 ± 25 kPa·kg/mol | 106 ± 32 kPa·kg/mol | 169 ± 51 kPa·kg/mol | – | – | – | – | 166 ± 50 kPa·kg/mol | – | –

The next lines start with results.

Henry's Law constant (274.15 K) | Henry's Law constant (294.65 K) | Henry's Law constant (296.15 K) | Henry's Law constant (310.15 K) | Henry's Law constant (320.15 K) | Henry's Law constant (331.15 K) | Henry's Law constant (298.15 K) | Henry's Law constant (311.15 K) | Henry's Law constant (332.15 K) | Henry's Law constant (273.25 K) | SMILES | Henry's Law constant (333.15 K) | Henry's Law constant (313.15 K) | Henry's Law constant (326.15 K)
3.74 ± 1.1 kPa·kg/mol | 23.4 kPa·kg/mol and 13.3 kPa·kg/mol | 27.8 ± 8.3 kPa·kg/mol | 74 ± 22 kPa·kg/mol | 87.9 ± 26 kPa·kg/mol | 153 ± 46 kPa·kg/mol | – | – | – | – | Cc1cccc2ccccc12 [1-methylnaphthalene] + O | 150 ± 45 kPa·kg/mol | – | –
90.4 ± 36 kPa·kg/mol | 248 kPa·kg/mol and 316 kPa·kg/mol | 356 ± 140 kPa·kg/mol | 503 ± 200 kPa·kg/mol | 533 ± 210 kPa·kg/mol | 1040 ± 420 kPa·kg/mol | – | – | – | – | Cc1ccccc1Cl [2-chlorotoluene] + O | – | 890 ± 360 kPa·kg/mol | 1280 ± 510 kPa·kg/mol
– | – | – | – | – | – | 1.91 ± 0.76 kPa·kg/mol | 4.09 ± 1.6 kPa·kg/mol | 100 ± 40 kPa·kg/mol | 0.0797 ± 0.032 kPa·kg/mol | CCCCC(CC)CO (stereo not given) [2-ethyl-1-hexanol] + O | – | – | –
5.5 kPa·kg/mol | – | 58 kPa·kg/mol | 59 kPa·kg/mol | 368 kPa·kg/mol | 1650 kPa·kg/mol | – | – | – | – | COC(C)(C)C [2-methoxy-2-methylpropane] + O | – | – | –
– | – | – | – | – | – | 0.223 ± 0.067 kPa·kg/mol | 0.665 ± 0.2 kPa·kg/mol | 3.28 ± 0.98 kPa·kg/mol | – | COCCO [2-methoxyethan-1-ol] + O | – | – | –
